In the Kinase Knowledgebase extract (Sharma et al. 2016):
pIC50: −log10 of the molar value.

The compounds below were run against CDK2 (human) (UniProt P24941) (assay: Enzyme Assay).

| SMILES | pIC50 |
| --- | --- |
| CC(C)c1n[nH]cc1-c1nc(NC2CCN(C)CC2)ncc1Br | > 5.30 |
| CC(C)c1[nH]ncc1-c1ccnc(NCCc2ccccc2)c1 | > 6.00 |
| CC(C)c1n[nH]cc1-c1ccnc(NC2CCN(c3ccccc3)CC2)n1 | > 6.30 |
| CCC(C)Nc1nccc(-c2c[nH]nc2C)n1 (stereo unspecified) | > 5.30 |
| Cc1n[nH]cc1-c1ccnc(NCC(C)C)n1 | > 5.30 |
| CC(C)c1n[nH]cc1-c1ccnc(NC2CC(C)(C)c3ccccc32)n1 (stereo unspecified) | > 5.30 |
| Cc1n[nH]cc1-c1ccnc(NC2CCN(Cc3ccccc3)C2)n1 (stereo unspecified) | > 5.00 |
| CCC(C)c1[nH]ncc1-c1ccnc(NCc2ccccc2C)c1 (stereo unspecified) | > 5.30 |
| CC(C)c1n[nH]cc1-c1ccnc(NC2CCNCC2)n1 | > 6.00 |
| CC(C)c1n[nH]cc1-c1ccnc(NCc2c(F)cccc2F)n1 | > 5.30 |
| CC(C)c1[nH]ncc1-c1ccnc(Nc2ccccc2)c1 | > 7.30 |
| CC(C)c1[nH]ncc1-c1ccnc(NCc2ccccc2C(F)(F)F)c1 | > 5.30 |
| CC(C)c1nn(C)cc1-c1ccnc(NC2CCN(C)CC2)n1 | > 5.30 |
| CC(C)c1n[nH]cc1-c1ccnc(NCc2ccc(N(C)C)cc2)n1 | > 5.30 |
| CCC(Nc1nccc(-c2c[nH]nc2C(C)C)n1)c1ccccc1 (stereo unspecified) | > 5.30 |
| Cc1cc(C)n(CCNc2nccc(-c3c[nH]nc3C(C)C)n2)n1 | > 4.82 |
| Cc1ccccc1CNc1cc(-c2cn[nH]c2C2CCCC2)ccn1 | > 5.30 |
| CC(C)c1[nH]ncc1-c1ccnc(NC2CCN(Cc3ccccc3)CC2)c1 | > 4.82 |
| Cc1n[nH]cc1-c1ccnc(NC2CCc3ccccc32)n1 (stereo unspecified) | > 5.00 |
| Cc1n[nH]cc1-c1ccnc(NC2CCC2)n1 | > 5.30 |
| CC(C)c1n[nH]cc1-c1ccnc(NC(C)c2ccccn2)n1 (stereo unspecified) | > 5.00 |

| SMILES | pIC50 |
| --- | --- |
| Cc1cccc(CNc2cc(-c3cn[nH]c3C(C)C)ccn2)c1 | > 5.30 |
| CC(C)c1[nH]ncc1-c1ccnc(NCC2CCCCCC2)c1 | > 5.30 |
| CN1CCC(Nc2cc(-c3cn[nH]c3C(C)(C)C)ccn2)CC1 | > 4.82 |
| CC(C)c1[nH]ncc1-c1ccnc(NCCOc2ccccc2)c1 | > 5.00 |
| Cc1n[nH]cc1-c1ccnc(NCC2CCCCCC2)n1 | > 4.82 |
| c1cc(-c2cn[nH]c2C2CCCC2)cc(NC2CCCCC2)n1 | > 6.00 |
| Cc1ccccc1CNc1cc(-c2cn[nH]c2C(C)C)ccn1 | > 5.30 |
| CC(C)c1n[nH]cc1-c1ccnc(NC2CCCCC2)n1 | > 7.30 |
| Cc1n[nH]cc1-c1ccnc(NC2CCCCCC2)n1 | > 5.30 |
| CCC(C)Nc1nccc(-c2c[nH]nc2C(C)C)n1 (stereo unspecified) | > 6.30 |
| CC(C)c1n[nH]cc1-c1ccnc(NCc2ccccc2F)n1 | > 6.30 |
| CC(C)CNc1cc(-c2cn[nH]c2C2CCCC2)ccn1 | > 6.00 |
| CC(C)CCNc1cc(-c2cn[nH]c2C(C)C)ccn1 | > 5.30 |
| CC(C)c1[nH]ncc1-c1ccnc(NC2CCCCCC2)c1 | > 6.30 |
| CC(C)c1n[nH]cc1-c1ccnc(NCc2ccccc2Cl)n1 | > 6.00 |
| CC(C)c1n[nH]cc1-c1ccnc(NC2CCN(Cc3ccccc3)CC2)n1 | > 6.00 |
| CC(=O)NCCNc1nccc(-c2c[nH]nc2C)n1 | > 4.82 |
| COCCCNc1cc(-c2cn[nH]c2C(C)C)ccn1 | > 5.30 |
| CCCCNc1cc(-c2cn[nH]c2C(C)C)ccn1 | > 5.30 |
| CC(C)c1[nH]ncc1-c1ccnc(NCc2cc(F)cc(F)c2)c1 | > 5.30 |
| CC(C)c1n[nH]c(Br)c1-c1ccnc(NC2CCN(C)CC2)n1 | > 5.30 |

| SMILES | pIC50 |
| --- | --- |
| c1cc(-c2cn[nH]c2C2CCCC2)cc(NC2CCCC2)n1 | > 6.30 |
| CC(C)c1n[nH]cc1-c1ccnc(NC2CN3CCC2CC3)n1 (stereo unspecified) | > 5.30 |
| Cc1n[nH]cc1-c1ccnc(NCc2ccncc2)n1 | > 4.82 |
| FC(F)(F)c1ccccc1CNc1cc(-c2cn[nH]c2C2CCCC2)ccn1 | > 5.30 |
| c1ccc2c(c1)CC(Nc1cc(-c3cn[nH]c3C3CC3)ccn1)C2 | > 6.00 |
| CCC(C)Nc1cc(-c2cn[nH]c2C(C)C)ccn1 (stereo unspecified) | > 6.00 |
| Cc1n[nH]cc1-c1ccnc(NCc2ccccc2)n1 | > 4.82 |
| CC(C)CNc1nccc(-c2c[nH]nc2C(C)C)n1 | > 7.00 |
| CC(C)c1[nH]ncc1-c1ccnc(NCCN2CCOCC2)c1 | > 5.00 |
| CC(C)c1n[nH]cc1-c1ccnc(N[C@@H](C)c2ccccc2)n1 | > 5.00 |
| CCC(C)c1[nH]ncc1-c1ccnc(NC2CCc3ccccc32)c1 (stereo unspecified) | > 5.30 |
| c1ccc2c(c1)CC(Nc1cc(-c3cn[nH]c3C3CCCCCC3)ccn1)C2 | > 6.00 |
| c1cc(-c2cn[nH]c2C2CCCC2)cc(NC2CCC2)n1 | > 6.30 |
| Cc1n[nH]cc1-c1ccnc(NCCCO)n1 | > 4.82 |
| Cc1n[nH]cc1-c1ccnc(NCCOc2ccccc2)n1 | > 4.82 |
| CC(C)c1n[nH]cc1-c1ccnc(NC2CCN(C(=O)OC(C)(C)C)CC2)n1 | > 6.00 |
| CC(C)c1[nH]ncc1-c1ccnc(NCc2ccco2)c1 | > 5.30 |
| Cc1ccc(CNc2cc(-c3cn[nH]c3C3CCCC3)ccn2)cc1 | > 5.30 |
| CCC(CC)c1[nH]ncc1-c1ccnc(NC2CCN(C(=O)OC(C)(C)C)CC2)c1 | > 5.30 |
| CC(C)c1n[nH]cc1-c1ccnc(NC2CCc3cc(Cl)ccc32)n1 (stereo unspecified) | > 6.30 |
| CC(C)c1[nH]ncc1-c1ccnc(NCCCO)c1 | > 5.30 |

Continued, values first:

| pIC50 | SMILES |
| --- | --- |
| > 5.30 | CC(C)c1[nH]ncc1-c1ccnc(NCc2ccc3c(c2)OCO3)c1 |
| > 6.00 | CC(C)c1[nH]ncc1-c1ccnc(NC2CC2)c1 |
| > 5.00 | Cc1n[nH]cc1-c1ccnc(NCc2ccc(F)cc2)n1 |
| > 6.00 | CC(C)c1[nH]ncc1-c1ccnc(NCCCn2ccnc2)c1 |
| > 5.30 | Cc1nnc(CCNc2nccc(-c3c[nH]nc3C(C)C)n2)[nH]1 |
| > 5.30 | c1cncc(CCNc2cc(-c3cn[nH]c3C3CCCC3)ccn2)c1 |
| > 4.82 | COc1ccccc1CNc1nccc(-c2c[nH]nc2C)n1 |
| > 5.30 | CC(C)c1[nH]ncc1-c1ccnc(NCC2CCCCC2)c1 |
| > 5.30 | CC(C)c1[nH]ncc1-c1ccnc(NCc2ccncc2)c1 |
| > 6.00 | c1cc(-c2cn[nH]c2C2CCCC2)cc(NC2CCCCCC2)n1 |
| > 5.00 | CC(C)c1n[nH]cc1-c1ccnc(NCCCNC2CCCCC2)n1 |
| > 4.82 | CC(C)c1[nH]ncc1-c1ccnc(NC2CCN(C)CC2)c1 |
| > 4.82 | COc1ccc(CNc2nccc(-c3c[nH]nc3C)n2)cc1 |
| > 5.30 | Cc1ccccc1CNc1cc(-c2cn[nH]c2C2CC2)ccn1 |
| > 5.30 | CC(C)COCCCNc1nccc(-c2c[nH]nc2C(C)C)n1 |
| > 4.82 | Cc1nnc(C(C)Nc2nccc(-c3c[nH]nc3C(C)C)n2)[nH]1 (stereo unspecified) |
| > 5.30 | CC(C)c1n[nH]cc1-c1ccnc(N[C@H](C)c2ccccn2)n1 |
| > 6.00 | CC(C)c1n[nH]cc1-c1ccnc(NC2CCN(C)CC2)n1 |
| > 6.00 | CC(C)c1n[nH]cc1-c1ccnc(NC2CCCCC2C)n1 (stereo unspecified) |
| > 5.30 | c1ccc2c(c1)CCC2Nc1cc(-c2cn[nH]c2C2CC2)ccn1 (stereo unspecified) |
| > 5.00 | Cc1n[nH]cc1-c1ccnc(NCCc2c[nH]c3ccccc23)n1 |

| pIC50 | SMILES |
| --- | --- |
| > 5.30 | Cc1n[nH]cc1-c1ccnc(NCc2cc(F)cc(F)c2)n1 |
| > 4.82 | Cc1n[nH]cc1-c1ccnc(NC2CCN(C)CC2)n1 |
| > 5.30 | c1ccc(CCNc2cc(-c3cn[nH]c3C3CCCC3)ccn2)cc1 |
| > 5.30 | Cc1ccc(CNc2cc(-c3cn[nH]c3C(C)C)ccn2)cc1 |
| > 5.30 | CC(C)c1[nH]ncc1-c1ccnc(NCc2cccc(C(F)(F)F)c2)c1 |
| > 6.30 | CC(C)c1n[nH]cc1-c1ccnc(NC2Cc3ccccc3C2)n1 |
| > 5.00 | Cc1n[nH]cc1-c1ccnc(NCCc2ccccc2)n1 |
| > 5.30 | CC(C)c1[nH]ncc1-c1ccnc(NC2CCc3ccccc32)c1 (stereo unspecified) |
| > 6.30 | CC(C)c1n[nH]cc1-c1ccnc(N[C@H]2CCc3ccccc32)n1 |
| > 5.00 | Cc1n[nH]cc1-c1ccnc(NCc2ccc3c(c2)OCO3)n1 |
| > 5.30 | CC(C)c1[nH]ncc1-c1ccnc(NCCc2ccccn2)c1 |
| > 4.82 | Cc1n[nH]cc1-c1ccnc(NCCC#N)n1 |
| > 5.30 | Cc1n[nH]cc1-c1ccnc(NC2CCCNC2)n1 (stereo unspecified) |
| > 5.00 | Cc1n[nH]cc1-c1ccnc(NCC2CC2)n1 |
| > 5.00 | CC(C)c1n[nH]cc1-c1ccnc(NCCCN(C)C)n1 |
| > 6.30 | CC(C)c1n[nH]cc1-c1ccnc(NC2CCc3cc(F)ccc32)n1 (stereo unspecified) |
| > 5.30 | CCC(CC)c1[nH]ncc1-c1ccnc(NCc2ccccc2C)c1 |
| > 5.00 | CCCCNc1nccc(-c2c[nH]nc2C)n1 |
| > 5.30 | CC(C)c1n[nH]cc1-c1ccnc(N[C@@H]2CCc3ccccc32)n1 |
| > 5.30 | c1cc(-c2cn[nH]c2C2CCCC2)cc(NCC2CC2)n1 |
| > 5.00 | Cc1n[nH]cc1-c1ccnc(NC2CC2)n1 |

| pIC50 | SMILES |
| --- | --- |
| > 6.00 | Cc1ccccc1CNc1nccc(-c2c[nH]nc2C(C)C)n1 |
| > 6.00 | CC(C)c1n[nH]cc1-c1ccnc(NC2CCCc3ccccc32)n1 (stereo unspecified) |
| > 5.30 | CC(CCc1ccccc1)Nc1nccc(-c2c[nH]nc2C(C)C)n1 (stereo unspecified) |
| > 6.30 | CC(C)c1n[nH]cc1-c1ccnc(N[C@H]2CCCc3ccccc32)n1 |
| > 5.00 | Cc1ccccc1CNc1cc(-c2cn[nH]c2C2CCCCCC2)ccn1 |
| > 5.30 | CC(C)c1[nH]ncc1-c1ccnc(NCCc2cccnc2)c1 |
| > 5.30 | CCCNc1cc(-c2cn[nH]c2C(C)C)ccn1 |
| > 5.30 | CCC(CC)c1[nH]ncc1-c1ccnc(NC2CCc3ccccc32)c1 (stereo unspecified) |
| > 5.30 | Cc1n[nH]cc1-c1ccnc(NC2CCCC2)n1 |
| > 5.30 | COc1ccc(CNc2cc(-c3cn[nH]c3C(C)C)ccn2)cc1 |
| > 5.30 | Cc1cccc(CNc2cc(-c3cn[nH]c3C3CCCC3)ccn2)c1 |
| > 5.30 | CC(CCCC(C)(C)O)Nc1nccc(-c2c[nH]nc2C(C)C)n1 (stereo unspecified) |
| > 5.00 | Cc1n[nH]cc1-c1ccnc(NCCc2cccnc2)n1 |
| > 6.00 | CC(C)c1n[nH]cc1-c1ccnc(NC2CCc3ccccc32)n1 (stereo unspecified) |
| > 5.00 | CCC(CC)c1[nH]ncc1-c1ccnc(NC2CCN(C)CC2)c1 |
| > 5.30 | Cc1cnc(NC2CCN(C)CC2)nc1-c1c[nH]nc1C(C)C |
| > 5.00 | Cc1ccccc1CNc1nccc(-c2c[nH]nc2C)n1 |
| > 6.30 | CC(C)CNc1cc(-c2cn[nH]c2C(C)C)ccn1 |
| > 5.30 | CC(C)c1[nH]ncc1-c1ccnc(NCc2ccc(F)cc2)c1 |
| > 5.00 | Cc1n[nH]cc1-c1ccnc(NCC2CCCCC2)n1 |
| > 5.30 | CC(C)c1n[nH]cc1-c1ccnc(NCc2ccccc2C(F)(F)F)n1 |
